For eleven compounds, GI50 and TGI results are on record in PubChem BioAssay (NCI).

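Five concentrations, 48 hours, 96-well plates. GI50 marks 50% less growth. TGI denotes the concentration required for complete inhibition of growth.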

Holding throughout (assay): inhibition of tumour cell growth, NCI panel, 48 h
Assay [1] has as its system SNB-19 CNS.
The test system of assay [2] is RXF 393 renal.
Assay [3] concerns UO-31 renal.
For assay [4], the system named is HOP-92 NSCLC.
In assay [5] the test system is T-47D breast.
The test system of assay [6] is SK-MEL-28 melanoma.
The subject of assay [7] is NCI-H460 lung.
Assay [8] relates to SNB-75 CNS.
The test system of assay [9] is MALME-3M melanoma.
Assay [10] deals with RPMI-8226 leukemia.

For the compound `O=C(/C=C/c1ccccn1)c1ccccc1O`, the GI50 was 3.21 µM in assay [1]; 1.75 µM in [2]; 1.31 µM in assay [3]; 2.1 µM in assay [4]; 2.45 µM in assay [5]; 2.09 µM in assay [6]. Moreover, the GI50 was 2.28 µM in assay [7] and 1.79 µM in [8]. Moreover, the TGI came out at 13.4 µM in assay [1]; 3.25 µM in [2]; 2.6 µM in assay [3]; 4.91 µM in assay [4]; 8.36 µM in assay [5]; 4.22 µM in assay [6]. Besides, the TGI in assay [7] was determined as 5.17 µM; in assay [8], 4.24 µM.

In the case of `COc1cc(-c2cc(/C=C/C(=O)c3ccc4c(c3)OCO4)[nH]n2)cc(OC)c1OC`, the GI50 in [1] was 4.3 µM; in assay [2] it was 1.48 µM; in assay [9], 4.42 µM; in assay [10], 0.51 µM; in assay [3], 1.91 µM; in [5], 2.51 µM. In addition, the GI50 in assay [6] is 2.48 µM; in [7] it was 2.12 µM. Also, the TGI in assay [1] is above 100 µM; in assay [2], 2.87 µM; in [9] it was 20.8 µM; in assay [10] it was 2.94 µM; in assay [3] it was 5.44 µM; in assay [5], 17 µM. Moreover, the TGI came to 7.34 µM in assay [6] and 5.1 µM in [7].

For `Cc1cc(C)nc(NS(=O)(=O)c2ccc(NC(=O)c3cccc4c(Nc5ccc(S(=O)(=O)Nc6nc(C)cc(C)n6)cc5)c5ccccc5nc34)cc2)n1`, the TGI in [1] is 82.4 µM; in [2], 31.5 µM; in [9], 56.7 µM; in assay [10] it was 61.8 µM; in assay [3], 37.3 µM; in assay [4], 45.1 µM. For the same compound, the TGI was 46 µM in assay [6], above 100 µM in assay [7] and 35.5 µM in assay [8].

Consider `O=C(N/N=C/c1coc2ccc(Cl)cc2c1=O)c1ccncc1`, for which the GI50 in [1] was above 100 µM; in assay [2] it was 65.9 µM; in assay [10] it was 16.6 µM; in assay [3], 58.4 µM; in assay [4], 93.8 µM; in [5] it was above 100 µM. Moreover, the GI50 in [6] is above 100 µM; in assay [7], 68.2 µM; in [8], 49.4 µM. Moreover, the TGI in assay [1], in assay [2], in [10], in assay [3], in assay [4] and in [5] was above 100 µM in each case. For the same compound, the TGI in [6], in assay [7] and in [8] was above 100 µM throughout.

For `COc1c(OC(C)=O)c(OC(C)=O)cc2c1-c1ccc(OC)c(=O)cc1C(NC(C)=O)CC2` (stereo not drawn), the TGI in assay [1] was above 95.5 µM; in assay [9], above 100 µM; in assay [10] it was above 100 µM; in [3], above 100 µM; in [5], above 100 µM; in assay [6] it was above 100 µM. The compound also showed a TGI in [7] of 13.1 µM.

Consider `CCCn1cc(C2=C(c3cn(C)c4ccccc34)C(=O)NC2=O)c2ccccc21`, for which the GI50 in [1] was 5.58 µM; in [2], 0.663 µM; in assay [9], 3.44 µM; in [10], 1.95 µM; in assay [3] it was 1.42 µM; in [5], 0.897 µM. The GI50 in assay [6] is 2.09 µM; in assay [7], 1.04 µM; in assay [8], 0.458 µM. The TGI in assay [1] is above 25 µM; in assay [2], 2.87 µM; in [9] it was 9.37 µM; in [10] it was 11.6 µM; in [3], 12 µM; in [5] it was 7.62 µM. The TGI is 8.69 µM in assay [6], 7.39 µM in [7] and 2.09 µM in assay [8].

For the compound `N#Cc1ccc(/C=N\N2C(=O)c3ccccc3C2=O)cc1`, the TGI in [1], in assay [2], in [9], in assay [10], in assay [3] and in assay [4] was above 100 µM throughout. Besides, the TGI in [6], in [7] and in assay [8] was above 100 µM throughout.

Take `O=C(O)CN(CC(=O)O)Cc1cc2c(cc1O)Oc1cc(O)c(CN(CC(=O)O)CC(=O)O)cc1C21OC(=O)c2ccccc21`: the TGI in [1], in assay [10], in assay [3], in [4], in assay [5] and in [6] was above 100 µM in each case. The compound also had a TGI in assay [8] above 100 µM.

Take `O=C1C(c2ccc([N+](=O)[O-])cc2)=[N+]([O-])c2ccccc21`: the TGI in assay [2] is 60.4 µM; in [9] it was above 100 µM; in [10], above 100 µM; in assay [3] it was 67 µM; in assay [4], 77.4 µM; in [6], 77.2 µM. Also, the TGI in assay [7] is above 100 µM; in assay [8], 69 µM.

Consider `O=c1c2cc(Br)ccc2[nH]c(=S)n1-c1ccc(Br)cc1`, for which the TGI was above 100 µM in assay [1]; above 100 µM in assay [2]; above 100 µM in [9]; above 100 µM in assay [10]; above 100 µM in assay [3]; 75.7 µM in assay [4]. Further, the TGI in assay [6] is above 100 µM; in [7], above 100 µM; in assay [8], 41 µM.

On to `COc1ccc(S(=O)(=O)N2CCN(C(=O)OCc3ccccc3)CC2C(=O)NO)cc1` (stereo not drawn), for which the GI50 was above 25 µM in assay [1]; above 25 µM in assay [2]; above 25 µM in assay [9]; 17 µM in assay [3]; 12.1 µM in assay [5]; above 25 µM in assay [6]. Further, the GI50 in [7] and in assay [8] was above 25 µM throughout. Further, the TGI in assay [1], in assay [2], in assay [9], in [3], in [5] and in assay [6] was above 25 µM throughout. Besides, the TGI in assay [7] and in assay [8] was above 25 µM each time.
